Experimental data published in patent US5849753A, “Pyridyl imidazole derivatives and processes for the preparation thereof” (Korea Research Institute of Chemical Technology, priority 1994, dated 1998).
One block for each compound: values may come before it.

Key:
angiotensin II receptor = assay: Angiotensin II Receptor Binding Assay ([3H] angiotensin II binding inhibition); details: [3H] angiotensin II ligand; 60 minutes, 25° C.; test concentration not given
Method: In accordance with the procedure disclosed in Chiu, A. T. et al., Eur. J. Pharm., 157, 13(1981), a ligand marked with a radioisotope was reacted with an angiotensin II receptor and the reactant was filtered with a glass fiber to remove unreacted ligand. After washing the filter, the amount of the remaining isotope was measured to determine the binding activity of the ligand, as described below in detail.
Sprague-Dawley rats and Wistar rats of 250 to 350 g(from The Korea Research Institute of Chemical Technology) were tested and the test procedures were carried out at 4° C., unless otherwise specified. Adrenal gland was separated from the Sprague-Dawley rats(liver, in the case of Wistar rats) into cortex and medulla. The separated adrenal cortex and medulla were washed with a sucrose buffer solution (0.2M sucrose, 1 mM EDTA, 10 mM Tris, pH 7.2) and homogenized in the same buffer solution by using a Teflon pestle and a Brinkmann homogenizer. The homogenates were centrifuged at 3,000 Xg for 10 minutes to remove precipitates and further centrifuged at 12,000 Xg for 13 minutes. The final supernatants were centrifuged at 102,000 Xg for 1 hour to obtain precipitates, which were washed with a Tris buffer solution(50 mM Tris, 5 mM MgCl2, pH 7.2) and re-centrifuged at 102,000 Xg for 1 hour. The resulting precipitates were immediately processed at the following step or stored at -70° C.
The precipitates were suspended in a Tris buffer solution. The amount of protein was determined by using a Bio-Rad DC protein analyzing kit and the protein concentration was adjusted to the amounts of: 0.2 to 0.3 mg/ml(Sprague-Dawley rat: adrenal cortex), 1.5 to 2.0 mg/ml(Sprague-Dawleyrat: adrenal medulla), and 1.5 to 2.0 mg/ml(Wistar rat: liver). To the suspension, bovine serum albumin(BSA) was added to a concentration of 0.25 wt % and the resultant was immediately processed at the following step or stored at -70° C.
(ii) Measurement of angiotensin II receptor binding capacity 50 μl(based on ligand) of [^3 H] angiotensin II(NEN, NET-446) and 10 μl of each of the test compounds with various concentrations were added to the buffer solution(50 mM Irris(pH 7.2), 5 mM MgCl2, 0.25% BSA) to adjust the final volume to be 0.5 ml. 100 μl of the receptor suspension was added thereto and the resulting solution was reacted for 60 minutes while stirring in a water bath at 25° C. 3 ml of cold buffer solution for analysis was added to cease the reaction. The isotope which was bound to the receptor was isolated from the resultant by using Brandel Cell Harvester System with Whatman glass fiber GF/C. After washing the filter, the radioactivity of the filter was determined by using a liquid scintillation counter. Binding inhibition(%) of the test compound was calculated as follows:
Binding Inhibition(%)=[{(T--B)-(S--B)}/(T--B)]×100
wherein T is cpm of the reaction product untreated with the test compound, S is cpm of the reaction product treated with the test compound, and B is cpm of blank test.

renal hypertensive rat [1] = assay: Blood pressure lowering effect on oral administration to rats at several doses; format: in vivo, male Sprague-Dawley rats
Text: (§1) To induce renal hypertension, left renal artery of 4 week-old male Sprague-Dawley rats(from The Korea Research Institute of Chemical Technology) was ligated. The rats were anesthetized with ether and the surgical region on the left abdomen of the rat was shaved, disinfected, and then incised about 1 cm vertically. The renal artery near abdominal aorta was isolated carefully from surrounding tissues and veins, and then ligated completely with a suture(4/0 sterile surgical silk). The muscular strata and skin of the surgical area were sutured with a suture(4/0 sterile surgical silk). The surgical region was disinfected to prevent infection and thereafter, 200 to 250 mg/Kg/day of cephazolin sodium was injected intramuscularly for 2 days. 6 to 8 days after the ligation, rats showing systolic pressure of more than 180 mmHg were selected for renal hypertension test. The blood pressure was determined by a tail-cuff method from the tail under unanesthetized condition(Gerold, M. et al., Arzneimittrel-Forsch, 18, 1285(1968)).
(§2) Each of the compounds to be tested was administered intravenously or orally into the renal hypertensive rat. The blood pressure of the rats was determined by direct method(Chiu, A. T. et al., J. Pharmacol. Exp. Ther. 250, 867(1989)) using a catheter. The rats were anesthetized with ketamine hydrochloride(125 mg/kg, i.p.) and a catheter was filled with saline and inserted into a carotid artery and carotid vein. The surgical area was sutured with a metal clip. The rats were relaxed at least 3 hours and the catheter in the carotid artery was adapted to an isotec pressure transducer to determine their blood pressure and heart rate with a physiograph(Linearcorder WR3310). After the blood pressure was stabilized, the test compound was administered intravenously or orally. For intravenous administration, the administered volume and washing volume were 1.0 ml/Kg and 0.2 ml, respectively. The blood pressure and heart rate were measured in regular intervals up to 24 hours after the administration of the test compound and compared with those measured after the administration of the control compound Losartan.
(§3) The test compound was dissolved in 0.05N KOH for intravenous administration and suspended in Tween 80 for oral administration.
(iii) Blood pressure lowering effect The present compounds, Losartan(Dup 753) and the Merck compound were administrated orally to rats in 10, 3, 1, 0.3 and 0.1 mg/kg under the same condition as in (ii) and the blood pressure lowering effect was determined.

unanesthetized dogs = assay: Blood pressure lowering effect in unanesthetized dogs (furosemide treated); format: in vivo, dog; design: Maximum blood pressure lowering effect in a dog: unit not given here; details: oral; for Blood pressure variation with time: 3 mg
Method: A number of dogs were fed freely in a feeding room and those weighing 7 to 12 kg in good health were selected regardless of their gender.
The test dogs were anesthetized with 30 mg/kg of pentobarbital sodium by intravenous injection and the left femoral artery and femoral vein were separated carefully. Silicone catheter, specially prepared and filled with saline treated with heparin(1,000 IU/ml), was cannulated into the blood vessels. After the surgery, the dogs were constrained to measure their blood pressure continuously with Gould 2000 physiograph adapted to a Grass P23 XL pressure transducer; and their heart rates were monitored with ECG/Biotacho amplifier. The dogs were tested at least 2 days after the surgery.
10 mg/kg of furosemide was injected intramuscularly 18 hours(in case of intravenous injection, 2 hours) before the beginning of the test (administration of the test compound) to improve the activity of renin in blood plasma. After the injection of furosemide, neither food nor water was provided. The test compound was suspended in Tween 80 and administered in an amount of 20 mg/kg orally. The blood pressure and heart rate were measured up to 8 hours after the administration of each test compound.
The maximum blood pressure lowering effect of the present compounds and the control compounds were determined in different amounts of administration using the same method as […]

renal hypertensive rat [2] = assay: Blood pressure lowering effect in renal hypertension (renal hypertensive rats, intravenous or oral); format: in vivo, male Sprague-Dawley rats; details: 3 mg, read-out: Maxium Blood Pressure Lowering Effect(%)
Text: as §1, §2, §3

SMILES: CCCCc1nc2cc(-c3ccccc3)c(C(OC)OC)nc2n1Cc1ccc(-c2ccccc2-c2nnn[nH]2)cc1 [Example 1, 2-butyl-5-dimethoxymethyl-6-phenyl-3-[2'-(1H-tetrazol-5-yl)biphenyl-4-ylmethyl]-3H-imidazo[4,5-b]pyridine]
Binding Inhibition(%) (angiotensin II receptor): 77.8%
blood pressure lowering effect (renal hypertensive rat [1]; 1 mg/kg): 25%
blood pressure lowering effect (renal hypertensive rat [1]; 3 mg/kg): 38%
Maximum blood pressure lowering effect in a dog (unanesthetized dogs; 1 mg/kg): 15
Maximum blood pressure lowering effect in a dog (unanesthetized dogs; 3 mg/kg): 35
Maximum blood pressure lowering effect in a dog (unanesthetized dogs; 10 mg/kg): 41
Blood pressure variation with time (unanesthetized dogs; dogs, 0.5 hr): -31.3%
Blood pressure variation with time (unanesthetized dogs; dogs, 1 hr): -32.6%
Blood pressure variation with time (unanesthetized dogs; dogs, 2 hr): -34.0%
Blood pressure variation with time (unanesthetized dogs; dogs, 4 hr): -33.0%
Blood pressure variation with time (unanesthetized dogs; dogs, 6 hr): -30.1%
Blood pressure variation with time (unanesthetized dogs; dogs, 8 hr): -25.9%
change in vivo at 3 mg (renal hypertensive rat [2]): -40%

SMILES: CCCCc1nc2cc(-c3cccnc3)c(C(OC)OC)nc2n1Cc1ccc(-c2ccccc2-c2nnn[nH]2)cc1 [Example 22, 2-butyl-5-dimethoxymethyl-6-(pyridin-3-yl)-3-[2'-(1H-tetrazol-5-yl)-biphenyl-4-ylmethyl]-3H-imidazo[4,5-b]pyridine]
Binding Inhibition(%) (angiotensin II receptor): 94.8%
change in vivo at 3 mg (renal hypertensive rat [2]): -38%

SMILES: CCCCc1nc2cc(-c3ccncc3)c(C(OC)OC)nc2n1Cc1ccc(-c2ccccc2-c2nnn[nH]2)cc1 [Example 23, 2-butyl-5-dimethoxymethyl-6-(pyridin-4-yl)-3-[2'-(1H-tetrazol-5-yl)-biphenyl-4-ylmethyl]-3H-imidazo[4,5-b]pyridine]
Binding Inhibition(%) (angiotensin II receptor): 92.9%
change in vivo at 3 mg (renal hypertensive rat [2]): -33%

SMILES: CCCCc1nc2cc(-c3ccc[n+]([O-])c3)c(C(OC)OC)nc2n1Cc1ccc(-c2ccccc2-c2nn[nH]n2)cc1 [Example 24, 2-butyl-5-dimethoxymethyl-6-(1-oxy-pyridin-3-yl)-3-[2'-(1H-tetrazol-5-yl)-biphenyl-4-ylmethyl]-3H-imidazo[4,5-b]pyridine]
Binding Inhibition(%) (angiotensin II receptor): 94.9%
change in vivo at 3 mg (renal hypertensive rat [2]): -18%

SMILES: CCCCc1nc(Cl)c(CO)n1Cc1ccc(-c2ccccc2-c2nn[nH]n2)cc1 [Losartan(Dup 753), Losartan, reference compound]
Binding Inhibition(%) (angiotensin II receptor): 48.0%
blood pressure lowering effect (renal hypertensive rat [1]; 3 mg/kg): 30%
blood pressure lowering effect (renal hypertensive rat [1]; 10 mg/kg): 46%
Maximum blood pressure lowering effect in a dog (unanesthetized dogs; 3 mg/kg): 13
Maximum blood pressure lowering effect in a dog (unanesthetized dogs; 10 mg/kg): 23
Blood pressure variation with time (unanesthetized dogs; dogs, 0.5 hr): -11.0%
Blood pressure variation with time (unanesthetized dogs; dogs, 1 hr): -12.3%
Blood pressure variation with time (unanesthetized dogs; dogs, 2 hr): -12.8%
Blood pressure variation with time (unanesthetized dogs; dogs, 4 hr): -9.9%
Blood pressure variation with time (unanesthetized dogs; dogs, 6 hr): -10.1%
Blood pressure variation with time (unanesthetized dogs; dogs, 8 hr): -8.2%
maximum blood pressure lowering effect lasted up to (after the administration) (unanesthetized dogs; dogs, as shown in Table 3): up to 2 hours
change in vivo at 3 mg (renal hypertensive rat [2]): -30%

More lines, main results first:

Binding Inhibition(%) (angiotensin II receptor): 81.9%
SMILES: CCCCc1nc2cc(-c3ccccc3OC)c(C(OC)OC)nc2n1Cc1ccc(-c2ccccc2-c2nn[nH]n2)cc1 [Example 20, 2-butyl-5-dimethoxymethyl-6-(2-methoxyphenyl-1-yl)-3-[2'-(1H-tetrazol-5-yl)-biphenyl-4-ylmethyl]-3H-imidazo[4,5-b]pyridine]
change in vivo at 3 mg (renal hypertensive rat [2]): -25%

Binding Inhibition(%) (angiotensin II receptor): 92.2%
SMILES: CCCCc1nc2cc(-c3cccc[n+]3[O-])c(C(OC)OC)nc2n1Cc1ccc(-c2ccccc2-c2nn[nH]n2)cc1 [Example 21, 2-butyl-5-dimethoxymethyl-6-(1-oxy-pyridin-2-yl)-3-[2'-(1H-tetrazol-5-yl)-biphenyl-4-ylmethyl]-3H-imidazo[4,5-b]pyridine]
change in vivo at 3 mg (renal hypertensive rat [2]): -20%

Binding Inhibition(%) (angiotensin II receptor): 97.0%
SMILES: CCCCc1nc2cc(-c3cc[n+]([O-])cc3)c(C(OC)OC)nc2n1Cc1ccc(-c2ccccc2-c2nn[nH]n2)cc1 [Example 25, 2-butyl-5-dimethoxymethyl-6-(1-oxy-pyridin-4-yl)-3-[2'-(1H-tetrazol-5-yl)-biphenyl-4-ylmethyl)-3H-imidazo[4,5-b]pyridine]
change in vivo at 3 mg (renal hypertensive rat [2]): -29%
